Data: patent publication US4339535A, “Process for preparing antibiotic EM 4940” (E. R. Squibb & Sons, Inc., priority 1980, dated 1982)

Assays:
[1] = tested on: Pseudomonas aeruginosa; experiment: MIC aerobic screen, BA-2 agar; conditions: Table II, additional tests
[2] = tested on: Klebsiella pneumoniae; experiment: MIC aerobic screen, BA-2 agar; conditions: Table II, additional tests; strain 11,066
[3] = tested on: Acinetobacter calcoaceticus; experiment: MIC aerobic screen, BA-2 agar; conditions: Table II, additional tests; strain 8333
[4] = tested on: Salmonella typhimurium; experiment: MIC aerobic screen, BA-2 agar; conditions: Table II, additional tests; strain 9201
[5] = tested on: Shigella sonnei; experiment: MIC aerobic screen, BA-2 agar; format: cell-based; conditions: Table II, additional tests; strain 8449
[6] = tested on: Escherichia coli; experiment: MIC aerobic screen, BA-2 agar; conditions: Table II, additional tests
[7] = tested on: Klebsiella aerogenes; experiment: MIC aerobic screen, BA-2 agar; conditions: Table II, additional tests; strain 10,436
[8] = tested on: Proteus rettgeri; experiment: MIC aerobic screen, BA-2 agar; conditions: Table II, additional tests; strain 8217
[9] = tested on: Serratia marcescens; experiment: MIC aerobic screen, BA-2 agar; conditions: Table II, additional tests
[10] = tested on: Staphylococcus aureus; experiment: MIC aerobic screen, BA-2 agar; conditions: Table II, additional tests
[11] = tested on: Streptococcus faecalis; experiment: MIC aerobic screen, BA-2 agar; conditions: Table II, additional tests; strain 9011
[12] = solubility; format: physicochemical; conditions: acetonitrile
[13] = tested on: Proteus morganii; experiment: MIC aerobic screen, BA-2 agar; conditions: Table II, additional tests; strain 9774
[14] = tested on: Enterobacter cloacae; experiment: MIC aerobic screen, BA-2 agar; conditions: Table II, additional tests; strain 10,459

In the case of `CC1(O)CC(C(N)=O)N=C1c1ncccc1O` (stereo not drawn) [EM4940B, 2,4-cis-3,4-dihydro-4-hydroxy-5-(3-hydroxy-2-pyridinyl)-4-methyl-2H-pyrrole-2-carboxamide], the “Minimum Inhibitory Concentration” value ([1]; strain 8754) is reported as 100 µg/mL, the “Minimum Inhibitory Concentration” value ([1]; strain 9330) is reported as > 200 µg/mL and the “Minimum Inhibitory Concentration” value ([1]; strain 9545) is reported as 12.5 µg/mL. The “Minimum Inhibitory Concentration” value [2] was 50 µg/mL, the “Minimum Inhibitory Concentration” value [3] was 100 µg/mL and the “Minimum Inhibitory Concentration” value [4] was 50 µg/mL. For the same compound, the “Minimum Inhibitory Concentration” value [5] was 50 µg/mL, the “Minimum Inhibitory Concentration” value ([6]; strain 10,404) was 50 µg/mL and the “Minimum Inhibitory Concentration” value ([6]; strain 10,857) was 50 µg/mL. The “Minimum Inhibitory Concentration” value [7] was 50 µg/mL, the “Minimum Inhibitory Concentration” value [8] was 50 µg/mL and the “Minimum Inhibitory Concentration” value ([9]; strain 9782) was 50 µg/mL. For the same compound, the “Minimum Inhibitory Concentration” value ([9]; strain 11,111) was 100 µg/mL, the “Minimum Inhibitory Concentration” value ([10]; strain 2400) was > 200 µg/mL and the “Minimum Inhibitory Concentration” value ([10]; strain 2661) was > 200 µg/mL. The “Minimum Inhibitory Concentration” value ([10]; strain 10,165) was 100 µg/mL, the “Minimum Inhibitory Concentration” value ([10]; strain 11,239) was 100 µg/mL and the “Minimum Inhibitory Concentration” value [11] was > 200 µg/mL. For the same compound, the “solubility of B form relative to A form” value [12] was “more soluble”, the “Minimum Inhibitory Concentration” value [13] was 100 µg/mL and the “Minimum Inhibitory Concentration” value [14] was 100 µg/mL.
